Experimental data: the NIST ThermoML archive (doi:10.1021/je900048r)
Where “and” joins values, the source holds several entries; their conditions need not be identical. Equal values may be shown once.

What was measured:
[1] = xn = mol fraction of the nth substance listed; conditions: Liquid, Other PVT measurement, x2 = 0
[2] = Liquid, Other PVT measurement

CCO [ethanol] + CCCCn1cc[n+](C)c1.F[B-](F)(F)F
mass density [kg/m3], [1]
Conditions | 200 kPa | 600 kPa | 1000 kPa | 1400 kPa | 1800 kPa | 2000 kPa
313.15 K | 770 | 770 | 770 | 771 | 771 | 772
353.15 K | 734 | 734 | 735 | 735 | 736 | 738
393.15 K | – | 691 | 692 | 693 | 694 | 694
433.15 K | – | – | – | 638 | 639 | 639

O [water]
[2]
Conditions | mass density [kg/m3]
313.15 K, 200 kPa | 993
313.15 K, 2000 kPa | 995
353.15 K, 200 kPa | 975
353.15 K, 400 kPa | 975
373.15 K, 800 kPa | 963
373.15 K, 1200 kPa | 963
393.15 K, 200 kPa | 949
393.15 K, 400 kPa | 949
393.15 K, 1600 kPa | 950
393.15 K, 2000 kPa | 950
433.15 K, 800 kPa | 912
433.15 K, 1200 kPa | 912
473.15 K, 1600 kPa | 871
473.15 K, 2000 kPa | 871

CCCCn1cc[n+](C)c1.F[B-](F)(F)F [1-butyl-3-methylimidazolium tetrafluoroborate]
mass density, [2]
Conditions | 100 kPa | 200 kPa | 600 kPa | 1000 kPa | 1400 kPa | 1800 kPa | 2000 kPa
293.15 K | 1198 kg/m3 | – | – | – | – | – | –
313.15 K | 1183 kg/m3 | 1185 kg/m3 | 1186 kg/m3 | 1186 kg/m3 | 1186 kg/m3 | 1187 kg/m3 | 1186.93 kg/m3 and 1187 kg/m3
353.15 K | – | 1159 kg/m3 | 1160 kg/m3 | 1160 kg/m3 | 1160 kg/m3 | 1161 kg/m3 | 1160.82 kg/m3 and 1161 kg/m3
393.15 K | – | – | 1135 kg/m3 | 1135 kg/m3 | 1135 kg/m3 | 1136 kg/m3 | 1135.92 kg/m3 and 1136 kg/m3
433.15 K | – | – | – | 1112 kg/m3 | 1112 kg/m3 | 1113 kg/m3 | 1113 kg/m3
473.15 K | – | – | – | – | – | 1086 kg/m3 | 1087 kg/m3

CC#N [acetonitrile] + CCCCn1cc[n+](C)c1.F[B-](F)(F)F
mass density [kg/m3], [1]
Conditions | 200 kPa | 600 kPa | 1000 kPa | 1400 kPa | 1800 kPa | 2000 kPa
313.15 K | 755 | 755 | 756 | 756 | 757 | 757
353.15 K | 710 | 711 | 711 | 711 | 712 | 713
393.15 K | – | 664 | 664 | 665 | 666 | 666
433.15 K | – | – | 611 | 612 | 614 | 614
473.15 K | – | – | – | – | 550 | 552

CC#N [acetonitrile]
mass density [kg/m3], [2]
Conditions | 200 kPa | 600 kPa | 1000 kPa | 1400 kPa | 1800 kPa | 2000 kPa
313.15 K | 755 | 755 | 756 | 756 | 757 | 757
353.15 K | 710 | 711 | 711 | 711 | 712 | 713
393.15 K | – | 664 | 664 | 665 | 666 | 666
433.15 K | – | – | 611 | 612 | 614 | 614
473.15 K | – | – | – | – | 550 | 552

CCO [ethanol]
mass density [kg/m3], [2]
Conditions | 200 kPa | 600 kPa | 1000 kPa | 1400 kPa | 1800 kPa | 2000 kPa
313.15 K | 770 | 770 | 770 | 771 | 771 | 772
353.15 K | 734 | 734 | 735 | 735 | 736 | 738
393.15 K | – | 691 | 692 | 693 | 694 | 694
433.15 K | – | – | – | 638 | 639 | 639
